Experimental data from patent publication US20260063641A1, “COMPOSITIONS AND METHODS FOR LABELING AND DETECTING BINDING PARTNERS” (UNIVERSITY OF UTAH RESEARCH FOUNDATION, priority 2022, published 2026).

What was measured:
NLuc-FKBP12F36V = target: T1, NLuc-FKBP12F36V (Homo sapiens, UniProt P62942, F37V); test: FKBP12F36V cellular target engagement assay (competition with dTAG-13, NLuc/FLuc signal); type: cell-based; conditions: mean±S.D. of n=3 technical replicates, FIG. 4D-F
T1 construct: expressed in transfected cells
T1 sequence (P62942 2-108 F37V limits assumed): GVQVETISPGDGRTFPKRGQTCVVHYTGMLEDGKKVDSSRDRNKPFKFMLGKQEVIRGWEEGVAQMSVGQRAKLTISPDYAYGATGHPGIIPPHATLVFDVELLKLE
Source text: This method, named the biotin targeting chimera (BioTAC) system, uses bifunctional molecules composed of a compound-of-interest linked to selective FKBP12F36V recruiter orthoAP1867, to recruit a ligandable proximity labeling enzyme (mTurbo-FKBP12F36V) to compound-bound complexes enabling their biotinylation and subsequent affinity purification (FIG. TA-B). To benchmark the BioTAC system for accurate detection of the direct targets of ligands the well-characterized BET protein inhibitor (+)-JQ1, which potently binds BRD2, BRD3 and BRD4 (as well as the testes-specific BET protein BRDT), was selected as a test case. A series of bifunctional molecules consisting of (+)-JQ1 conjugated to […] were synthesized via a variable linker (FIG. 1B, FIG. 4A-C). (+)-JQ1-bifunctional molecule cell permeability was measured using an FKBP12F36V cellular target engagement assay adapted from Nabet et. al Nat Commun 11, 4687 (2020). Briefly, FKBP12F36V binding molecules compete with an FKBP12F36V targeting PROTAC (dTAG-13), for NLuc-FKBP12F36V occupancy, rescuing degradation and resulting in an increase in NLuc/FLuc (control) signal relative to DMSO-treated cells. All synthesized compounds were comparably cell permeable (FIG. 4D-E).

BRD4 = target: T2, BRD4 (Homo sapiens, UniProt O60885); test: BioTAC proximity labeling, streptavidin pulldown and western blot for BRD4; type: cell-based; conditions: HEK293 transiently transfected with miniTurbo-FKBP12F36V, 100 μM biotin, 30 min time point
T2 construct: host or cells: HEK293 transiently transfected with the BioTAC plasmid
Description: Next bifunctional molecule guided-proximity labeling experiments were performed using validated reagents. HEK293 cells transiently transfected with mTurbo-FKBP12F36V were treated with 100 μM biotin, 1 μM bifunctional (+)-JQ1 recruiters, and variable concentrations of free (+)-JQ1 to off-compete the bifunctional molecule and rescue biotinylation. Biotinylated proteins were isolated from cell lysates via streptavidin bead pulldown and analyzed by western blot for BRD4, a primary target of (+)-JQ1.
0.6 million HEK293 cells were plated into wells containing 1 mL of complete media (DMEM, 10% FBS, 1% pen/strep) and incubated overnight. Cells were transiently transfected with 100 μL of OptiMEM media containing 1 μg of BioTAC plasmid and 3 μL of TransIT-2020 transfection reagent (Mirus, MIR5400) for 24 hr. Following a media change, cells were pre-treated with parental molecules or DMSO for 10 min, then treated with bifunctional compound for 10 min, and finally labeled in 100 μM biotin for the indicated time. Cells were washed twice with DPBS then harvested into 1.5 mL tubes. […] Protein concentration was determined by BCA assay (Thermo, 23225), then 100 ug protein was rotated overnight at 4° C. with 8 μL of streptavidin magnetic beads (Thermo, 88817) that had been prewashed twice in RIPA lysis buffer. […]

- competitive displacement of dTAG-13 (FKBP12F36V cellular target engagement) (NLuc-FKBP12F36V): competitive displacement of dTAG-13
- BRD4 labeling and rescue (immunoblot of streptavidin pulldown) (BRD4): high BRD4-labeling and rescue
SMILES: CC[C@H](C(=O)N1CCCC[C@H]1C(=O)O[C@H](CCc1ccc(OC)c(OC)c1)c1ccccc1OCC(=O)NCCOCCOCCOCCNC(=O)C[C@@H]1N=C(c2ccc(Cl)cc2)c2c(sc(C)c2C)-n2c(C)nnc21)c1cc(OC)c(OC)c(OC)c1 [Cpd1, (R)-1-(2-((17-((S)-4-(4-Chlorophenyl)-2,3,9-trimethyl-6H-thieno[3,2-f][1,2,4]triazolo[4,3-a][1,4]diazepin-6-yl)-2,16-dioxo-6,9,12-trioxa-3,15-diazaheptadecyl)oxy)phenyl)-3-(3,4-dimethoxyphenyl)propyl (S)-1-((S)-2-(3,4,5-trimethoxyphenyl)butanoyl)piperidine-2-carboxylate]
